Source: BigSolDB 2.1

`Oc1ccc(OCc2ccccc2)cc1` gave a solubility (mole fraction) (in ethanol, 283.15 K) of 0.0483, a solubility (mole fraction) (in ethanol, 288.15 K) of 0.056 and a solubility (mole fraction) (in ethanol, 293.15 K) of 0.0644. It also gave a solubility (mole fraction) (in ethanol, 298.15 K) of 0.0737, a solubility (mole fraction) (in ethanol, 303.15 K) of 0.0846 and a solubility (mole fraction) (in ethanol, 308.15 K) of 0.0956. It also gave a solubility (mole fraction) (in ethanol, 313.15 K) of 0.109, a solubility (mole fraction) (in ethanol, 318.15 K) of 0.123 and a solubility (mole fraction) (in ethanol, 323.15 K) of 0.137. It also gave a solubility (mole fraction) (in ethanol, 328.15 K) of 0.155, a solubility (mole fraction) (in ethylene glycol, 283.15 K) of 0.0053 and a solubility (mole fraction) (in ethylene glycol, 288.15 K) of 0.00664. It also gave a solubility (mole fraction) (in ethylene glycol, 293.15 K) of 0.00822, a solubility (mole fraction) (in ethylene glycol, 298.15 K) of 0.0101 and a solubility (mole fraction) (in ethylene glycol, 303.15 K) of 0.0125. For the same compound, the solubility (mole fraction) (in ethylene glycol, 308.15 K) was 0.0149, the solubility (mole fraction) (in ethylene glycol, 313.15 K) was 0.018 and the solubility (mole fraction) (in ethylene glycol, 318.15 K) was 0.0216. It also gave a solubility (mole fraction) (in ethylene glycol, 323.15 K) of 0.0257, a solubility (mole fraction) (in ethylene glycol, 328.15 K) of 0.0302 and a solubility (mole fraction) (in isopropanol, 283.15 K) of 0.0217. The solubility (mole fraction) (in isopropanol, 288.15 K) was 0.0261, the solubility (mole fraction) (in isopropanol, 293.15 K) was 0.0308 and the solubility (mole fraction) (in isopropanol, 298.15 K) was 0.0365. It also gave a solubility (mole fraction) (in isopropanol, 303.15 K) of 0.0425, a solubility (mole fraction) (in isopropanol, 308.15 K) of 0.0503 and a solubility (mole fraction) (in isopropanol, 313.15 K) of 0.0583. The solubility (mole fraction) (in isopropanol, 318.15 K) was 0.0671, the solubility (mole fraction) (in isopropanol, 323.15 K) was 0.0778 and the solubility (mole fraction) (in isopropanol, 328.15 K) was 0.0896. The solubility (mole fraction) (in n-propanol, 283.15 K) was 0.0381, the solubility (mole fraction) (in n-propanol, 288.15 K) was 0.0446 and the solubility (mole fraction) (in n-propanol, 293.15 K) was 0.052. It also gave a solubility (mole fraction) (in n-propanol, 298.15 K) of 0.0605, a solubility (mole fraction) (in n-propanol, 303.15 K) of 0.0702 and a solubility (mole fraction) (in n-propanol, 308.15 K) of 0.0804. For the same compound, the solubility (mole fraction) (in n-propanol, 313.15 K) was 0.0931, the solubility (mole fraction) (in n-propanol, 318.15 K) was 0.106 and the solubility (mole fraction) (in n-propanol, 323.15 K) was 0.12. It also gave a solubility (mole fraction) (in n-propanol, 328.15 K) of 0.137, a solubility (mole fraction) (in water, 283.15 K) of 3.57e-06 and a solubility (mole fraction) (in water, 288.15 K) of 4.49e-06. It also gave a solubility (mole fraction) (in water, 293.15 K) of 5.64e-06, a solubility (mole fraction) (in water, 298.15 K) of 7.04e-06 and a solubility (mole fraction) (in water, 303.15 K) of 8.71e-06. It also gave a solubility (mole fraction) (in water, 308.15 K) of 1.07e-05, a solubility (mole fraction) (in water, 313.15 K) of 1.3e-05 and a solubility (mole fraction) (in water, 318.15 K) of 1.57e-05. The solubility (mole fraction) (in water, 323.15 K) was 1.91e-05 and the solubility (mole fraction) (in water, 328.15 K) was 2.29e-05.
